Measured values as given in patent US10588317B2, “Isoxazoline-substituted benzamides and analogues as insecticides” (priority 2015, dated 2020).

What was measured:
Format in all cases: in vivo
Myzus persicae = Myzus persicae (green peach aphid): feeding/contact activity; conditions: 144 h, application rate 200 ppm, aphid population of mixed ages, 6 days after infestation, read-out: mortality
Description: Sunflower leaf discs were placed onto agar in a 24-well microtiter plate and sprayed with aqueous test solutions prepared from 10'000 ppm DMSO stock solutions. After drying, the leaf discs were infested with an aphid population of mixed ages. The samples were assessed for mortality 6 days after infestation.

Spodoptera littoralis [1] = test: Spodoptera littoralis (Egyptian cotton leaf worm), sprayed cotton leaf discs; conditions: foliar, 72 h, application rate 200 ppm, L1 larvae, 3 days after infestation, read-out: control (mortality, anti-feeding effect, growth inhibition)
In short: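 Five first-instar larvae placed on dried cotton leaf discs (on agar) previously sprayed with aqueous dilutions of 10'000 ppm DMSO stocks. Scored at 3 days against untreated discs for mortality, feeding inhibition and growth inhibition; any category above untreated counts as control.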

Tetranychus urticae = Tetranychus urticae (two-spotted spider mite): feeding/contact activity; conditions: 192 h, application rate 200 ppm, mixed population (mobile stages), 8 days after infestation, read-out: mortality
Description: Bean leaf discs on agar in 24-well microtiter plates were sprayed with aqueous test solutions prepared from 10'000 ppm DMSO stock solutions. After drying the leaf discs were infested with a mite population of mixed ages. The samples were assessed for mortality on mixed population (mobile stages) 8 days after infestation.

Thrips tabaci = Thrips tabaci (onion thrips): feeding/contact activity; conditions: 144 h, application rate 200 ppm, Thrips population of mixed ages, 6 days after infestation, read-out: mortality
Description: Sunflower leaf discs were placed on agar in 24-well microtiter plates and sprayed with aqueous test solutions prepared from 10'000 ppm DMSO stock solutions. After drying the leaf discs were infested with a Thrips population of mixed ages. The samples were assessed for mortality 6 days after infestation.

Spodoptera littoralis [2] = test: Spodoptera littoralis (Egyptian cotton leaf worm), uptake by lettuce roots from agar; conditions: 144 h, read-out: effect in at least one of the three categories (mortality, anti-feeding, or growth inhibition)
From the text: Test compounds were applied by pipette from 10'000 ppm DMSO stock solutions into 24-well plates and mixed with agar. Lettuce seeds were placed onto the agar and the multi well plate was closed by another plate which contained also agar. After 7 days the compound was absorbed by the roots and the lettuce grew into the lid plate. The lettuce leaves were then cut off into the lid plate. Spodoptera eggs were pipetted through a plastic stencil onto a humid gel blotting paper and the lid plate was closed with it. The samples were assessed for mortality, anti-feedant effect and growth inhibition in comparison to untreated samples 6 days after infestation.
The following compounds gave an effect of at least 80% in at least one of the three categories (mortality, anti-feeding, or growth inhibition) at a test rate of 12.5 ppm: […]

Euschistus heros = Euschistus heros (neotropical brown stink bug), sprayed soybean leaves; conditions: 120 h, application rate 200 ppm, N2 nymphs, 5 days after infestation, read-out: effect in at least one of the two categories (mortality or growth inhibition)
In short: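 Scored 5 days post-infestation versus untreated controls, for both mortality and growth inhibition: N2 nymphs placed on agar-mounted soybean leaves previously sprayed at 200 ppm with aqueous test solutions from DMSO stocks and left to dry.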

Plutella xylostella = Plutella xylostella (diamond back moth), artificial diet; conditions: 120 h, application rate 200 ppm, L2 larvae, 5 days after infestation, read-out: effect in at least one of the two categories (mortality or growth inhibition)
In short: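 L2 larvae (10-15 per well) fed on compound-treated, dried artificial diet; test solutions diluted in water from 10'000 ppm DMSO stocks. Readout 5 days post-infestation as mortality or growth inhibition versus untreated diet, with at least 80% effect at 200 ppm as threshold.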

Diabrotica balteata = Diabrotica balteata (corn root worm), sprayed maize sprouts; conditions: 96 h, application rate 200 ppm, L2 larvae, 4 days after infestation, read-out: effect in at least one of the two categories (mortality or growth inhibition)
In short: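 Read-out at 4 days post-infestation: mortality and growth inhibition relative to untreated samples. Test solutions (200 ppm, from DMSO stocks) were sprayed onto agar-held maize sprouts, which after drying received 6–10 L2 larvae per well.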

CCN(C)S(=O)(=O)N1C[C@@H](NC(=O)c2ccc(C3=NO[C@@](c4cc(Cl)c(F)c(Cl)c4)(C(F)(F)F)C3)cc2C)CO1 [Compound A140, 4-[(5S)-5-(3,5-dichloro-4-fluoro-phenyl)-5-(trifluoromethyl)-4H-isoxazol-3-yl]-N-[(4R)-2-[ethyl(methyl)sulfamoyl]isoxazolidin-4-yl]-2-methyl-benzamide]
≥ 80%: mortality at 200 ppm (Myzus persicae) | mortality at 200 ppm (Spodoptera littoralis [1]) | mortality at 200 ppm (Tetranychus urticae) | mortality at 200 ppm (Thrips tabaci) | percent control (mortality, anti-feedant effect or growth inhibition) at 12.5 ppm (Spodoptera littoralis [2]) | percent effect (mortality or growth inhibition) at 200 ppm (Euschistus heros) | percent effect (mortality or growth inhibition) at 200 ppm (Plutella xylostella) | percent effect (mortality or growth inhibition) at 200 ppm (Diabrotica balteata)

Cc1cc(C2=NO[C@@](c3cc(Cl)cc(Cl)c3)(C(F)(F)F)C2)ccc1C(=O)NC1CON(S(=O)(=O)N(C)C)C1 (some centres unmarked) [Compound A41]
≥ 80%: mortality at 200 ppm (Myzus persicae) | mortality at 200 ppm (Spodoptera littoralis [1]) | mortality at 200 ppm (Tetranychus urticae) | mortality at 200 ppm (Thrips tabaci) | percent control (mortality, anti-feedant effect or growth inhibition) at 12.5 ppm (Spodoptera littoralis [2]) | percent effect (mortality or growth inhibition) at 200 ppm (Euschistus heros) | percent effect (mortality or growth inhibition) at 200 ppm (Plutella xylostella) | percent effect (mortality or growth inhibition) at 200 ppm (Diabrotica balteata)

Cc1cc(C2=NO[C@@](c3cc(Cl)c(F)c(Cl)c3)(C(F)(F)F)C2)ccc1C(=O)N[C@H]1CON(S(=O)(=O)N(C)C)C1 (single isomer, unassigned) [Compound A143]
≥ 80%: mortality at 200 ppm (Myzus persicae) | mortality at 200 ppm (Spodoptera littoralis [1]) | mortality at 200 ppm (Tetranychus urticae) | mortality at 200 ppm (Thrips tabaci) | percent control (mortality, anti-feedant effect or growth inhibition) at 12.5 ppm (Spodoptera littoralis [2]) | percent effect (mortality or growth inhibition) at 200 ppm (Euschistus heros) | percent effect (mortality or growth inhibition) at 200 ppm (Plutella xylostella) | percent effect (mortality or growth inhibition) at 200 ppm (Diabrotica balteata)

CNS(=O)(=O)N1C[C@@H](NC(=O)c2ccc(C3=NO[C@@](c4cc(Cl)cc(C(F)(F)F)c4)(C(F)(F)F)C3)cc2C)CO1 [Compound A138]
≥ 80%: mortality at 200 ppm (Myzus persicae) | mortality at 200 ppm (Spodoptera littoralis [1]) | mortality at 200 ppm (Tetranychus urticae) | mortality at 200 ppm (Thrips tabaci) | percent control (mortality, anti-feedant effect or growth inhibition) at 12.5 ppm (Spodoptera littoralis [2]) | percent effect (mortality or growth inhibition) at 200 ppm (Euschistus heros) | percent effect (mortality or growth inhibition) at 200 ppm (Plutella xylostella) | percent effect (mortality or growth inhibition) at 200 ppm (Diabrotica balteata)

CN(C)S(=O)(=O)N1C[C@@H](NC(=O)c2ccc(C3=NO[C@@](c4cc(Cl)c(Cl)c(Cl)c4)(C(F)(F)F)C3)cc2Cl)CO1 [Compound A109, 2-chloro-N-[(4R)-2-(dimethylsulfamoyl)isoxazolidin-4-yl]-4-[(5S)-5-(3,4,5-trichlorophenyl)-5-(trifluoromethyl)-4H-isoxazol-3-yl]benzamide]
≥ 80%: mortality at 200 ppm (Myzus persicae) | mortality at 200 ppm (Spodoptera littoralis [1]) | mortality at 200 ppm (Tetranychus urticae) | mortality at 200 ppm (Thrips tabaci) | percent control (mortality, anti-feedant effect or growth inhibition) at 12.5 ppm (Spodoptera littoralis [2]) | percent effect (mortality or growth inhibition) at 200 ppm (Euschistus heros) | percent effect (mortality or growth inhibition) at 200 ppm (Plutella xylostella) | percent effect (mortality or growth inhibition) at 200 ppm (Diabrotica balteata)

Cc1cc(C2=NO[C@@](c3cc(Cl)c(F)c(Cl)c3)(C(F)(F)F)C2)ccc1C(=O)NC1CON(S(=O)(=O)CCl)C1 (stereo partly drawn) [Compound A5, N-[2-(chloromethylsulfonyl)isoxazolidin-4-yl]-4-[(5S)-5-(3,5-dichloro-4-fluoro-phenyl)-5-(trifluoromethyl)-4H-isoxazol-3-yl]-2-methyl-benzamide]
≥ 80%: mortality at 200 ppm (Myzus persicae) | mortality at 200 ppm (Spodoptera littoralis [1]) | mortality at 200 ppm (Tetranychus urticae) | mortality at 200 ppm (Thrips tabaci) | percent control (mortality, anti-feedant effect or growth inhibition) at 12.5 ppm (Spodoptera littoralis [2]) | percent effect (mortality or growth inhibition) at 200 ppm (Euschistus heros) | percent effect (mortality or growth inhibition) at 200 ppm (Plutella xylostella) | percent effect (mortality or growth inhibition) at 200 ppm (Diabrotica balteata)

C=CCNS(=O)(=O)N1CC(NC(=O)c2ccc(C3=NO[C@@](c4cc(Cl)c(F)c(Cl)c4)(C(F)(F)F)C3)cc2C)CO1 (some centres unmarked) [Compound A105]
≥ 80%: mortality at 200 ppm (Myzus persicae) | mortality at 200 ppm (Spodoptera littoralis [1]) | mortality at 200 ppm (Tetranychus urticae) | mortality at 200 ppm (Thrips tabaci) | percent control (mortality, anti-feedant effect or growth inhibition) at 12.5 ppm (Spodoptera littoralis [2]) | percent effect (mortality or growth inhibition) at 200 ppm (Euschistus heros) | percent effect (mortality or growth inhibition) at 200 ppm (Plutella xylostella) | percent effect (mortality or growth inhibition) at 200 ppm (Diabrotica balteata)

CCN(C)S(=O)(=O)N1CC(NC(=O)c2ccc(C3=NO[C@@](c4cc(Cl)c(Cl)c(Cl)c4)(C(F)(F)F)C3)cc2C)CO1 (stereo partly drawn) [Compound A73, N-[2-[ethyl(methyl)sulfamoyl]isoxazolidin-4-yl]-2-methyl-4-[(5S)-5-(3,4,5-trichlorophenyl)-5-(trifluoromethyl)-4H-isoxazol-3-yl]benzamide]
≥ 80%: mortality at 200 ppm (Myzus persicae) | mortality at 200 ppm (Spodoptera littoralis [1]) | mortality at 200 ppm (Tetranychus urticae) | mortality at 200 ppm (Thrips tabaci) | percent control (mortality, anti-feedant effect or growth inhibition) at 12.5 ppm (Spodoptera littoralis [2]) | percent effect (mortality or growth inhibition) at 200 ppm (Euschistus heros) | percent effect (mortality or growth inhibition) at 200 ppm (Plutella xylostella) | percent effect (mortality or growth inhibition) at 200 ppm (Diabrotica balteata)

CNS(=O)(=O)N1C[C@@H](NC(=O)c2ccc(C3=NO[C@@](c4cc(Cl)c(Cl)c(Cl)c4)(C(F)(F)F)C3)cc2Cl)CO1 [Compound A126, 2-chloro-N-[(4R)-2-(methylsulfamoyl)isoxazolidin-4-yl]-4-[(5S)-5-(3,4,5-trichlorophenyl)-5-(trifluoromethyl)-4H-isoxazol-3-yl]benzamide]
≥ 80%: mortality at 200 ppm (Myzus persicae) | mortality at 200 ppm (Spodoptera littoralis [1]) | mortality at 200 ppm (Tetranychus urticae) | mortality at 200 ppm (Thrips tabaci) | percent control (mortality, anti-feedant effect or growth inhibition) at 12.5 ppm (Spodoptera littoralis [2]) | percent effect (mortality or growth inhibition) at 200 ppm (Euschistus heros) | percent effect (mortality or growth inhibition) at 200 ppm (Plutella xylostella) | percent effect (mortality or growth inhibition) at 200 ppm (Diabrotica balteata)

CCNS(=O)(=O)N1C[C@@H](NC(=O)c2ccc(C3=NO[C@@](c4cc(Cl)cc(Cl)c4)(C(F)(F)F)C3)cc2C)CO1 [Compound A135, 4-[(5S)-5-(3,5-dichlorophenyl)-5-(trifluoromethyl)-4H-isoxazol-3-yl]-N-[(4R)-2-(ethylsulfamoyl)isoxazolidin-4-yl]-2-methyl-benzamide]
≥ 80%: mortality at 200 ppm (Myzus persicae) | mortality at 200 ppm (Spodoptera littoralis [1]) | mortality at 200 ppm (Tetranychus urticae) | mortality at 200 ppm (Thrips tabaci) | percent control (mortality, anti-feedant effect or growth inhibition) at 12.5 ppm (Spodoptera littoralis [2]) | percent effect (mortality or growth inhibition) at 200 ppm (Euschistus heros) | percent effect (mortality or growth inhibition) at 200 ppm (Plutella xylostella) | percent effect (mortality or growth inhibition) at 200 ppm (Diabrotica balteata)
